Legend:
[1] = molecular target: T1, human ALDH2 wild type (Homo sapiens, UniProt P05091); assay: ALDH2 enzymatic assay (NADH at 340 nm), recombinant wild type enzyme; format: biochemical; set-up: key: −: no activation or inhibition; +: activation less than control 1; ++: activation similar to control 1, within 10%; +++: activation more than control 1 and less than control (compound 161); ++++: activation similar to compound 161, within 10%; settings: activation relative to benchmarks control 1 and compound 161
T1 construct: His-tag (pTrcHis vector) (N); made in house; host or cells: E. coli BL21
T1 sequence (P05091 18-517): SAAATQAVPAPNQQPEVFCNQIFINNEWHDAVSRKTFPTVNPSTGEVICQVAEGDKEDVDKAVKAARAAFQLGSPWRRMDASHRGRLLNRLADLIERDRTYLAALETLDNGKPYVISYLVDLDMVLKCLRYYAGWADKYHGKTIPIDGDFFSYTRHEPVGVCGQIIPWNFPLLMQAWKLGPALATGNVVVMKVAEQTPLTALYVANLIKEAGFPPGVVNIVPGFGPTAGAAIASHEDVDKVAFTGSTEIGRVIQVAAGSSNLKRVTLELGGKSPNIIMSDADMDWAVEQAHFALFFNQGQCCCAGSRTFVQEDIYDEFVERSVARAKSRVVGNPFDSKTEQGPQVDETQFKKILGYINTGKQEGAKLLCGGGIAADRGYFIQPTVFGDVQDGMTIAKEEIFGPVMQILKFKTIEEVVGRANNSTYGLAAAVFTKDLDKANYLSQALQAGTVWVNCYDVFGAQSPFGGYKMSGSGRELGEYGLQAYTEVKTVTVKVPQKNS

[2] = LogD (pH 7.4); format: physicochemical
Procedure: (§1) In vitro ADMET of compounds of the present disclosure was carried out according to known methods in the art. Below are data for certain compounds of the present disclosure.

[3] = RLM stability T1/2; format: in vitro ADME; settings: rat, liver microsomes
Procedure: as §1

[4] = NHPLM stability T1/2; format: in vitro ADME; settings: monkey, liver microsomes
Procedure: as §1

[5] = system: ALDH-2 (or mutant) enzyme; assay: Rate of 4-HNE oxidation by ALDH-2; format: biochemical; settings: 4-HNE substrate, O.D. 340 nm, 25° C.
Procedure: The effect of compound 161 on the rate of 4-HNE oxidation by ALDH-2 was carried out by methods known in the art. To each well of a 96-well flat bottom UV plate, the following reagents were sequentially added by pipetting:
50 μl of 100 mM sodium pyrophosphate decahydrate (NaPPi, pH 8.4)
25 μl of 10 mM nicotinamide adenine dinucleotide hydrate (NAD)
1 μl of 20 mM testing compound DMSO solution
The plate was then put on a shaker to mix the cocktails in wells. After 5 minutes of mixing, 1 ul of ALDH-2 (or mutant) enzyme was added to each well with the reagent cocktail. DMSO was used as blank control in the plate. The plate was again put on shaker for another 5 minutes of shaking to enhance bonding between testing compounds and the enzyme.
1 ul of 30 mM 4-HNE in water was then added to each of wells containing the above reaction mixture. After a short vigorous mixing, the UV plate was fed into a plate reader to measure kinetic optical density (O.D.) at wavelength 340 nm at 25° C. over 4 minutes. Each point of measurement was taken at a time interval of 40 seconds.

[6] = system: unpurified human liver homogenates (liver mitochondria fraction), ALDH; assay: ALDH activity in human liver biopsy samples; format: biochemical; settings: 20 μM, acetaldehyde substrate, 750 μg protein
Procedure: The study of compounds of the present disclosure on unpurified human liver homogenates was carried out according to methods known in the art. Briefly, 750 μg of the total unpurified protein from the liver mitochondria fraction was used in this assay. The kinetic increase of absorbance at λ340 nm was monitored for 15 minutes for NADH. For the first 3 minutes, the assay was carried in the absence of the substrate or AD-363 to establish the base line. As expected, no NADH production was detected. Substrate acetaldehyde was then added at the 3-min time point and the reaction monitored for the next 6 min to record the catalytic rate in the absence of an activator. Compound 161 (20 μM), was then added at the 9-min time point and the reaction monitored for the next 6 min to record the increase in catalytic rate.

**Q.** Which “ALDH2 (wild-type)” value [1] does the source give for `COc1ccc(CNC(=O)c2c(Cl)ccnc2OCC2CC2)cc1F` [Compound 161] here?
**A.** ++++

**Q.** What about the logD [2] of the same compound?
**A.** 3

**Q.** What about the half-life [3] of the same compound?
**A.** 0.974 min

**Q.** And the half-life [4]?
**A.** 2.54 min

**Q.** And the “rate of 4-HNE oxidation by ALDH-2” value [5]?
**A.** accelerate the rate of 4-HNE oxidation

**Q.** What about the “increase of human liver enzyme's catalytic rate” value [6] of the same compound?
**A.** 2.38 folds

From patent US9670162B2, “Mitochondrial aldehyde dehyrogenase-2 modulators and methods of use thereof” (The Board of Trustees of the Leland Stanford Junior …, priority 2013, dated 2017)
